From patent US5368707A, “Convenient determination of trace lead in whole blood and other fluids” (priority 1993, dated 1994)

Assays:
isocitrate dehydrogenase [1] = target: T1, isocitrate dehydrogenase (Sus scrofa, UniProt P33198); assay: Sensitivity of isocitrate dehydrogenase to lead ion (detection level); type: biochemical, pig
T1 construct: purchased Sigma, St. Louis, Mo; ICD Type VI
T1 sequence (P33198 9-421): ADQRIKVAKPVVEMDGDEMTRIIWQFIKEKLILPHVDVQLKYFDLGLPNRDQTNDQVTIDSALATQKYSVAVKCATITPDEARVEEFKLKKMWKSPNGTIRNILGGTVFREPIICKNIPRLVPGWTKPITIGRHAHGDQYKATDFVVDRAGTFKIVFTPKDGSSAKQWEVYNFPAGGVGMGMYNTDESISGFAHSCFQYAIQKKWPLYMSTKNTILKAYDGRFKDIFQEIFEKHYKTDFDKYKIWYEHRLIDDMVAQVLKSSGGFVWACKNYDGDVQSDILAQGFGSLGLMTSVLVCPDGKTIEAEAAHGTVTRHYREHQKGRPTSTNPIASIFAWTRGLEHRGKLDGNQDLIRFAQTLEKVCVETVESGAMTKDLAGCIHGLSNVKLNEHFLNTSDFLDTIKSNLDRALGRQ
Experimental: Pig heart NADP-linked isocitric dehydrogenase (ICD, EC 1.1.1.42), an oxidoreductase, is sensitive to trace levels of lead ion as low as 1 μg/dl. […] In fact, at low concentrations of activator, e.g., <200 ppb Mn^++, the activity of ICD is proportional to Mn^++ and may be used to determine activator concentration (Guilbault, 1970). Inactivation by inhibitors is useful for determining inhibitor concentration. Specificity of enzymes for activators, or inhibitors, is not as great as for the natural substrate of the enzyme, but in some cases inhibitor concentration may be selectively determined. Silver and mercury have been determined in the presence of each other using isocitrate dehydrogenase (Mealor and Townshend, 1968). However, until now, there has been no satisfactory rapid amperometric method to determine lead ion based on ICD inhibition, much less a simple method to determine low lead ion concentrations in whole blood.
The inventors have developed a highly sensitive method for the determination of lead ion in solution. Isocitrate dehydrogenase, under specific conditions, may be employed in an assay to quantitatively determine lead ion in the range 0-30 μg per deciliter of solution. Assay sensitivity can be adjusted to a desired concentration range for lead by altering one or more of several parameters such as the concentration of isocitric dehydrogenase. Lower enzyme concentrations increase sensitivity to lead ion.
(§1) The inventors have shown that less than 1 μg/dL of lead in solution may be measured employing the enzyme isocitrate dehydrogenase. The measurements are sensitive to several factors, including pH, enzyme concentration, co-factor concentration and temperature. The following example illustrates the effect of pH on enzyme inhibition.

isocitrate dehydrogenase [2] = target: T1, isocitrate dehydrogenase; assay: Effect of pH on inhibition of isocitrate dehydrogenase by lead ion (Example 7); type: biochemical, pig; conditions: for Current / Inhibition: 1.0 U/mL enzyme, 50 mM Tris
Experimental: as §1
Inhibition of the enzyme isocitrate dehydrogenase was calculated based on the amperometric signal (I) which is the mediator oxidation current measured with a glassy carbon electrode at an applied potential of +100 mV. Inhibition was determined as (Iuninhibited -Iinhibited)/Iuninhibited. 50 mM Tris buffer at various pH values as shown in Table 2 was used with 1.0 U/mL enzyme in the solution.

isocitrate dehydrogenase [3] = target: T1, isocitrate dehydrogenase; assay: Effect of temperature on lead inhibition of isocitrate dehydrogenase (Example 9); type: biochemical, pig; conditions: for Inhibition rate: 4 μM lead, 10 nM enzyme, 15 min; for inhibition rates: lead concentration not printed at this place
Experimental: The activity of isocitrate dehydrogenase and its response is affected by several factors.
A solution of isocitrate dehydrogenase (10 nM) was incubated for 15 min at various temperatures between 18° C. and 37° C. and rate of lead inhibition measured. Inhibition rates increased approximately linearly from about 25% to 85% at a lead concentration of 4 μM (FIG. 5).

Horseradish peroxidase = conditions: Guilbault, et al., 1968; cited from earlier work
isocitrate dehydrogenase [4] = target: T1, isocitrate dehydrogenase; assay: Amperometric ICDH activity with lead-containing whole blood samples; type: biochemical, pig
From the text: The present invention concerns approaches to and methods for determining lead ion levels in whole blood. […] Isocitrate dehydrogenase for example is inhibited by lead. […] This is likely due to binding of lead by blood proteins such as albumin or other proteins, although it is also possible that the enzyme is stabilized by an unidentified blood component.

isocitrate dehydrogenase [5] = target: T1, isocitrate dehydrogenase; assay: ICDH inhibition by lead in the presence of CoSO4 (Example 8); type: biochemical, pig; conditions: 1 mM CoSO4
Experimental: A major problem in the measurement of lead in blood is the interference by various blood proteins and, as in the majority of clinical samples, the presence of excess amounts of EDTA. The inventors have discovered that lead chelated with EDTA is exchangeable with cobalt(II). As shown in this example, lead Pb(II) is displaced from EDTA by cobalt(II) and detected by its inhibition of isocitrate dehydrogenase (ICDH).
Micromolar concentrations of lead were determined through ICDH inhibition in the presence of 1 mM CoSO4.

[Pb+2] [lead ion]
reversibility of binding to ICDH (isocitrate dehydrogenase [1]): binds irreversibly to the enzyme
detectable lead ion level (isocitrate dehydrogenase [1]; ICDH inhibition): ~1 µg/dL
quantitatively determinable lead range (isocitrate dehydrogenase [1]; isocitrate dehydrogenase assay, in solution): 0-30 μg per deciliter
Current (isocitrate dehydrogenase [2]; pH 7.5, 5.5 μg/dL Pb): 749 nA
Inhibition (isocitrate dehydrogenase [2]; pH 7.5, 5.5 μg/dL Pb): 0%
Current (isocitrate dehydrogenase [2]; pH 7.5, 11.1 μg/dL Pb): 754 nA
Inhibition (isocitrate dehydrogenase [2]; pH 7.5, 11.1 μg/dL Pb): 0%
Current (isocitrate dehydrogenase [2]; pH 7.5, 16.6 μg/dL Pb): 760 nA
Inhibition (isocitrate dehydrogenase [2]; pH 7.5, 16.6 μg/dL Pb): -1%
Current (isocitrate dehydrogenase [2]; pH 7.5, 22.1 μg/dL Pb): 750 nA
Inhibition (isocitrate dehydrogenase [2]; pH 7.5, 22.1 μg/dL Pb): 0%
Current (isocitrate dehydrogenase [2]; pH 7.5, 27.6 μg/dL Pb): 761 nA
Inhibition (isocitrate dehydrogenase [2]; pH 7.5, 27.6 μg/dL Pb): -1%
Inhibition (in words) (isocitrate dehydrogenase [2]; pH 7.5, 27.6 μg/dL lead): no significant inhibition
Inhibition (in words) (isocitrate dehydrogenase [2]; pH 7.5, up to about 28 mg per deciliter lead (so in the source)): very little if any inhibition
Current (isocitrate dehydrogenase [2]; pH 8.0, 5.5 μg/dL Pb): 673 nA
Inhibition (isocitrate dehydrogenase [2]; pH 8.0, 5.5 μg/dL Pb): 6%
Current (isocitrate dehydrogenase [2]; pH 8.0, 11.1 μg/dL Pb): 613 nA
Inhibition (isocitrate dehydrogenase [2]; pH 8.0, 11.1 μg/dL Pb): 14%
Current (isocitrate dehydrogenase [2]; pH 8.0, 16.6 μg/dL Pb): 532 nA
Inhibition (isocitrate dehydrogenase [2]; pH 8.0, 16.6 μg/dL Pb): 25%
Current (isocitrate dehydrogenase [2]; pH 8.0, 22.1 μg/dL Pb): 439 nA
Inhibition (isocitrate dehydrogenase [2]; pH 8.0, 22.1 μg/dL Pb): 38%
Current (isocitrate dehydrogenase [2]; pH 8.0, 27.6 μg/dL Pb): 303 nA
Inhibition (isocitrate dehydrogenase [2]; pH 8.0, 27.6 μg/dL Pb): 58%
enzyme inhibition (isocitrate dehydrogenase [2]; pH 8, up to about 28 mg per deciliter lead (so in the source)): about 60%
Current (isocitrate dehydrogenase [2]; pH 8.5, 5.5 μg/dL Pb): 636 nA
Inhibition (isocitrate dehydrogenase [2]; pH 8.5, 5.5 μg/dL Pb): 18%
Current (isocitrate dehydrogenase [2]; pH 8.5, 11.1 μg/dL Pb): 522 nA
Inhibition (isocitrate dehydrogenase [2]; pH 8.5, 11.1 μg/dL Pb): 33%
Current (isocitrate dehydrogenase [2]; pH 8.5, 16.6 μg/dL Pb): 406 nA
Inhibition (isocitrate dehydrogenase [2]; pH 8.5, 16.6 μg/dL Pb): less than 50%
Inhibition (isocitrate dehydrogenase [2]; pH 8.5, 16.6 μg/dL Pb, listed as Lead ion): 48%
Current (isocitrate dehydrogenase [2]; pH 8.5, 22.1 μg/dL Pb): 241 nA
Inhibition (isocitrate dehydrogenase [2]; pH 8.5, 22.1 μg/dL Pb): 69%
Current (isocitrate dehydrogenase [2]; pH 8.5, 27.6 μg/dL Pb): 99 nA
Inhibition (isocitrate dehydrogenase [2]; pH 8.5, 27.6 μg/dL Pb, listed as Lead ion): 87%
Inhibition (isocitrate dehydrogenase [2]; pH 8.5, 27.6 μg/dL Pb, listed as lead): approximately 87%
enzyme inhibition (isocitrate dehydrogenase [2]; pH 8.5, up to about 28 mg per deciliter lead (so in the source)): about 90%
Current (isocitrate dehydrogenase [2]; pH 9.0, 5.5 μg/dL Pb): 4 nA
Inhibition (isocitrate dehydrogenase [2]; pH 9.0, 5.5 μg/dL Pb): 99%
Current (isocitrate dehydrogenase [2]; pH 9.0, 11.1 μg/dL Pb): 21 nA
Inhibition (isocitrate dehydrogenase [2]; pH 9.0, 11.1 μg/dL Pb): 98%
Inhibition (in words) (isocitrate dehydrogenase [2]; pH 9.0, between 0 and 5.5 mg per deciliter lead (so in the source)): complete inhibition
Inhibition (in words) (isocitrate dehydrogenase [2]; pH 9.0, up to 5.5 μg/dL lead): completely inhibited
Inhibition rate (isocitrate dehydrogenase [3]; 18° C.): about 25%
inhibition rates (isocitrate dehydrogenase [3]; 18° C.): 25%
Inhibition rate (isocitrate dehydrogenase [3]; 37° C.): ~85%
inhibition rates (isocitrate dehydrogenase [3]; 37° C.): about 85%
linear range of peroxidase inhibition (Horseradish peroxidase): 10 to 185 µg/mL
inhibition of isocitrate dehydrogenase activity (isocitrate dehydrogenase [4]): do not detectably inhibit isocitrate dehydrogenase activity
Inhibition (isocitrate dehydrogenase [5]; 2.4 μM lead): 24%
Inhibition (isocitrate dehydrogenase [5]; 4.8 μM lead): 46%
Inhibition (isocitrate dehydrogenase [5]; 12 μM lead): 71%
